According to ChEMBL document CHEMBL1201862, “PubChem BioAssay data set” (2004):
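Where inhibition never reached the appropriate level, the endpoint shown equals the highest concentration tested. Otherwise, values were interpolated linearly from a five-concentration, 48-hour dose response in 96-well plates. GI50 marks 50% less growth.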 Active and inactive are the calls of the source. Rule as the data show it: active = GI50 up to about 1.1 µM and inactive = higher.

Columns and labels:
Test in all cases: NCI-60 cell line screen, 48 h
786-0 = system: 786-0
A498 = system: A498
A549 = system: A549
ACHN = system: ACHN
BT-549 = system: BT-549
CAKI-1 = system: CAKI-1
CCRF-CEM = system: CCRF-CEM
COLO 205 = system: COLO 205
DU-145 = system: DU-145
EKVX = system: EKVX
HCC 2998 = system: HCC 2998
HCT-116 = system: HCT-116
HCT-15 = system: HCT-15
HOP-62 = system: HOP-62
HOP-92 = system: HOP-92
HT-29 = system: HT-29
Hs-578T = system: Hs-578T
IGROV-1 = system: IGROV-1
KM12 = system: KM12
LOX IMVI = system: LOX IMVI
M14 = system: M14
MCF7 = system: MCF7
MDA-MB-231 = system: MDA-MB-231
MDA-MB-435 = system: MDA-MB-435
MDA-N = system: MDA-N
MOLT-4 = system: MOLT-4
Malme-3M = system: Malme-3M
NCI-H226 = system: NCI-H226
NCI-H23 = system: NCI-H23
NCI-H460 = system: NCI-H460
NCI-H522 = system: NCI-H522
NCI/ADR-RES = system: NCI/ADR-RES
OVCAR-3 = system: OVCAR-3
OVCAR-4 = system: OVCAR-4
OVCAR-5 = system: OVCAR-5
OVCAR-8 = system: OVCAR-8
PC-3 = system: PC-3
RPMI-8226 = system: RPMI-8226
SF-268 = system: SF-268
SF-295 = system: SF-295
SF-539 = system: SF-539
SK-MEL-28 = system: SK-MEL-28
SK-MEL-2 = system: SK-MEL-2
SK-MEL-5 = system: SK-MEL-5
SK-OV-3 = system: SK-OV-3
SN12C = system: SN12C
SNB-19 = system: SNB-19
SNB-75 = system: SNB-75
SR = system: SR
SW-620 = system: SW-620
T47D = system: T47D
TK-10 = system: TK-10
U-251 = system: U-251
UACC-257 = system: UACC-257
UACC-62 = system: UACC-62
HL-60 = system: HL-60
K562 = system: K562
UO-31 = system: UO-31

With `O=C(O)Cn1cnc2c(O)nc(Nc3ccccc3)nc21` the GI50 (786-0) was > 100 µM (inactive), the GI50 (A498) was > 100 µM (inactive) and the GI50 (A549) was > 100 µM (inactive). For the same compound, the GI50 (ACHN) was > 100 µM (inactive), the GI50 (BT-549) was > 100 µM (inactive) and the GI50 (CAKI-1) was > 100 µM (inactive). The GI50 (CCRF-CEM) was > 100 µM (inactive), the GI50 (COLO 205) was > 100 µM (inactive) and the GI50 (DU-145) was > 100 µM (inactive). The GI50 (EKVX) was > 100 µM (inactive), the GI50 (HCC 2998) was > 100 µM (inactive) and the GI50 (HCT-116) was > 100 µM (inactive). For the same compound, the GI50 (HCT-15) was > 100 µM, the GI50 (HOP-62) was > 100 µM (inactive) and the GI50 (HOP-92) was > 100 µM (inactive). The GI50 (HT-29) was > 100 µM (inactive), the GI50 (Hs-578T) was > 100 µM (inactive) and the GI50 (IGROV-1) was > 100 µM (inactive). The GI50 (KM12) was > 100 µM (inactive), the GI50 (LOX IMVI) was > 100 µM (inactive) and the GI50 (M14) was > 100 µM (inactive). For the same compound, the GI50 (MCF7) was > 100 µM (inactive), the GI50 (MDA-MB-231) was > 100 µM (inactive) and the GI50 (MDA-MB-435) was > 100 µM (inactive). The GI50 (MDA-N) was > 100 µM (inactive), the GI50 (MOLT-4) was > 100 µM (inactive) and the GI50 (Malme-3M) was > 100 µM (inactive). The GI50 (NCI-H226) was > 100 µM (inactive), the GI50 (NCI-H23) was > 100 µM (inactive) and the GI50 (NCI-H460) was > 100 µM (inactive). For the same compound, the GI50 (NCI-H522) was > 100 µM (inactive), the GI50 (NCI/ADR-RES) was > 100 µM (inactive) and the GI50 (OVCAR-3) was > 100 µM (inactive). For the same compound, the GI50 (OVCAR-4) was > 100 µM (inactive), the GI50 (OVCAR-5) was > 100 µM (inactive) and the GI50 (OVCAR-8) was > 100 µM (inactive). For the same compound, the GI50 (PC-3) was > 100 µM (inactive), the GI50 (RPMI-8226) was > 100 µM (inactive) and the GI50 (SF-268) was > 100 µM (inactive). For the same compound, the GI50 (SF-295) was > 100 µM (inactive), the GI50 (SF-539) was > 100 µM (inactive) and the GI50 (SK-MEL-28) was > 100 µM (inactive). The GI50 (SK-MEL-2) was > 100 µM (inactive), the GI50 (SK-MEL-5) was > 100 µM (inactive) and the GI50 (SK-OV-3) was > 100 µM (inactive). The GI50 (SN12C) was > 100 µM (inactive), the GI50 (SNB-19) was > 100 µM (inactive) and the GI50 (SNB-75) was > 100 µM (inactive). The GI50 (SR) was > 100 µM (inactive), the GI50 (SW-620) was > 100 µM (inactive) and the GI50 (T47D) was > 100 µM (inactive). The GI50 (TK-10) was > 100 µM (inactive), the GI50 (U-251) was > 100 µM (inactive) and the GI50 (UACC-257) was > 100 µM (inactive). For the same compound, the GI50 (UACC-62) was > 100 µM (inactive).

In the case of `O=C(OCC1OC2OC(c3ccccc3)(n3ccc4c([N+](=O)[O-])ccnc43)OC2C1OC(=O)c1ccccc1)c1ccccc1` (stereo not drawn), the GI50 (786-0) is reported as > 100 µM (inactive), the GI50 (A498) is reported as > 100 µM (inactive) and the GI50 (A549) is reported as > 100 µM (inactive). For the same compound, the GI50 (ACHN) was > 100 µM (inactive), the GI50 (BT-549) was > 100 µM (inactive) and the GI50 (CAKI-1) was > 100 µM (inactive). The GI50 (CCRF-CEM) was > 100 µM (inactive), the GI50 (DU-145) was > 100 µM (inactive) and the GI50 (EKVX) was > 100 µM (inactive). The GI50 (HCC 2998) was > 100 µM (inactive), the GI50 (HCT-116) was > 100 µM (inactive) and the GI50 (HCT-15) was > 100 µM. For the same compound, the GI50 (HL-60) was > 100 µM (inactive), the GI50 (HOP-62) was > 100 µM (inactive) and the GI50 (HOP-92) was > 100 µM (inactive). For the same compound, the GI50 (HT-29) was > 100 µM (inactive), the GI50 (Hs-578T) was 64.7 µM (inactive) and the GI50 (IGROV-1) was > 100 µM (inactive). The GI50 (K562) was > 100 µM (inactive), the GI50 (KM12) was > 100 µM (inactive) and the GI50 (LOX IMVI) was > 100 µM (inactive). The GI50 (M14) was > 100 µM (inactive), the GI50 (MCF7) was > 100 µM (inactive) and the GI50 (MDA-MB-231) was > 100 µM (inactive). The GI50 (MDA-MB-435) was > 100 µM (inactive), the GI50 (MDA-N) was > 100 µM (inactive) and the GI50 (MOLT-4) was > 100 µM (inactive). For the same compound, the GI50 (Malme-3M) was > 100 µM (inactive), the GI50 (NCI-H226) was > 100 µM (inactive) and the GI50 (NCI-H23) was > 100 µM (inactive). For the same compound, the GI50 (NCI-H460) was > 100 µM (inactive), the GI50 (NCI/ADR-RES) was > 100 µM (inactive) and the GI50 (OVCAR-3) was > 100 µM (inactive). The GI50 (OVCAR-4) was > 100 µM (inactive), the GI50 (OVCAR-5) was > 100 µM (inactive) and the GI50 (OVCAR-8) was > 100 µM (inactive). For the same compound, the GI50 (PC-3) was > 100 µM (inactive), the GI50 (RPMI-8226) was > 100 µM (inactive) and the GI50 (SF-295) was > 100 µM (inactive). For the same compound, the GI50 (SK-MEL-28) was > 100 µM (inactive), the GI50 (SK-MEL-2) was > 100 µM (inactive) and the GI50 (SK-MEL-5) was > 100 µM (inactive). For the same compound, the GI50 (SK-OV-3) was > 100 µM (inactive), the GI50 (SN12C) was > 100 µM (inactive) and the GI50 (SNB-19) was > 100 µM (inactive). For the same compound, the GI50 (SR) was > 100 µM (inactive), the GI50 (SW-620) was > 100 µM (inactive) and the GI50 (T47D) was 35 µM (inactive). For the same compound, the GI50 (TK-10) was > 100 µM (inactive), the GI50 (U-251) was > 100 µM (inactive) and the GI50 (UACC-257) was > 100 µM (inactive). For the same compound, the GI50 (UACC-62) was > 100 µM (inactive) and the GI50 (UO-31) was > 100 µM (inactive).
